Experimental data from patent USRE46907E1, “Suppression of cancer growth and metastasis using nordihydroguaiaretic acid derivatives with metabolic modulators” (THE JOHNS HOPKINS UNIVERSITY, priority 2008, dated 2018).

Tests used:
PKCδ = experiment: Western blotting of total PKCδ and phosphor-PKCδ (Thr505) in 67NR cells; assay type: cell-based, mouse; conditions: 5 hrs, M4N 80 μM, Ro 5 μM, Ly 20 μM, Des 150 μM
Procedure: The sample volumes were adjusted by the total protein amount. Protein assay was performed by Bio-Rad Protein Assay (Bio-Rad Laboratories, Inc. Hercules, Calif.). The samples were resolved by the standard SDS-polyacrylamide gel electrophoresis and transferred to nitrocellulose membrane (Amersham Biosciences, Bjorkgatan, Sweden). The membranes were blocked with skim milk, and incubated with primary antibodies at 4° C. overnight and then with secondary antibody conjugated with horse radish peroxidase at room temperature for 2 hrs. The signals were detected by western blot chemiluminescence reagent plus (New England Nuclear Life Science Products, Boston, Mass.).

67NR cells [1] = experiment: TUNEL apoptosis assay in 67NR cells; assay type: cell-based, mouse; conditions: 48 hr after treatment, M4N 80 μM
Procedure: (§1) Cell Culture Either cell line 4T1 or 67NR was a gift from Dr. Miller (20). The cells were cultured in RPMI1640 medium supplemented with glucose (14 mM), pyruvate (1 mM), penicillin (100 units/ml), streptomycin (100 μg/ml), and fetal bovine serum (10%), buffered with 25 mM HEPES (pH 7.4). LNCaP human prostate cancer cell line was purchased from American Type Culture Collection (Manassas, Va.). The cell line was cultured in RPMI1640 medium supplemented with glucose (14 mM), pyruvate (1 mM), penicillin (100 units/ml), streptomycin (100 μg/ml), and fetal bovine serum (10%). Drugs were dissolved in dimethyl sulfoxide (DMSO) at a suitable concentration so that the final concentration of DMSO in the medium was less than 0.1%.
(§2) Apoptosis assay: Simple TLTNEL assay was conducted by using TUNEL apoptosis detection kit (Upstate, Temecula, Calif.) with some modification. For the evaluation of the effect of PKCδ wild type and dominant negative vectors on TUNEL-positive cell death, we first transfected 4T1 or 67NR cells with these vectors by effectene (Qiagen, Valencia, Calif.). Wild type PKCδ vector is constructed from wild type PKCδ gene and pEGFP (Promega, Madison, Wis.). Dominant negative PKCδ vector is constructed from PKCδ gene mutated at a 376th amino acid residue (threonine) and pEGFP (Promega, Madison, Wis.) This threonine residue is located in ATP-binding domain of protein kinase Cδ, and therefore essential for any kinase reaction of the protein so that this mutant protein supposedly function as dominant negative. As a control we used pEGFP-N3 vector was used. These vectors contain green fluorescent protein (GFP) gene to be used as a transfection marker. The vectors are kind gifts from Dr. Yuspa (National Institutes of Health, Bethesda, Md.) (88). Twenty four hours after transfection, the cells were treated with M4N, Rottlerin, or Ly294002. Then 24 hrs after this treatment with these reagents, the cells were fixed with 10% formaldehyde in phosphate buffered saline without calcium and magnesium (PBS (−)). The cells were then incubated with rabbit anti-GFP antibody (MBL International, Woburn, Mass.) followed by treatment with anti-rabbit IgG antibody conjugated with fluorescein (Promega, Madison, Wis.). TUNEL staining was conducted by using TUNEL apoptosis detection kit (Upstate, Temecula, Calif.) except for using Streptavidin-Alexa Fluor 568 (Molecular Probes, Eugene, Oreg.) instead of Avidine-Rhodamine contained in the kit. Cell death was evaluated by dividing the number of TUNEL-positive cells among the cells positive with anti-GFP staining by the number of these GFP-positive cells.

[2] = test system: PDK-1/Akt pathway-related proteins; experiment: Western blotting of PDK-1/Akt pathway-related proteins in 4T1 cells; assay type: cell-based, mouse; conditions: 4T1, 5 hrs after treatment
Procedure: (§3) Western blotting: After cells had been grown in […] flasks and treated with reagents, the cells were washed with PBS (−) three times and suspended in RIP A buffer (150 mM NaCl, 50 mM Tris-HCl (pH 8,0), 0.1% SDS, 1% NP40, and 0.5% deoxycholate) supplemented with protease inhibitor cocktail (Calbiochem, San Diego, Calif.). The sample volumes were adjusted by the total protein amount. Protein assay was performed by Bio-Rad Protein Assay (Bio-Rad Laboratories, Inc. Hercules, Calif.). The samples were resolved by the standard SDS-polyacrylamide gel electrophoresis and transferred to nitrocellulose membrane (Amersham Biosciences, Bjorkgatan, Sweden). The membranes were blocked with skim milk, and incubated with primary antibodies at 4° C. overnight and then with secondary antibody conjugated with horse radish peroxidase at room temperature for 2 hrs. The signals were detected by western blot chemiluminescence reagent plus (New England Nuclear Life Science Products, Boston, Mass.).

4T1 cells = experiment: 4T1 tumor-bearing Balb/c mice (life-span, tumor size); assay type: in vivo, mouse; conditions: 5×10^4 cells, M4N 1 mg/shot, Rottlerin 100 μg/shot, three days a week from day 7
Procedure: (§4) Animals: Female Balb/e mice were obtained from Charles River Laboratories (Wilmington, Mass.). M4N and Rottlerin were dissolved into a solvent, CPE (25/30) solvent system supplied by Erimos Pharmaceutical, L.L.C. (Raleigh, N.C.) and injected into mice either intravenously or intraperitoneally, T-cell deficient male nude mice (nu/nu) were obtained from Charles River Laboratories (Wilmington, Mass.). M4N and Ly294002 were dissolved into a solvent, CPE (25/30) solvent system supplied by Erimos Pharmaceutical, L.L.C. (Raleigh, N.C.) and injected into mice intravenously.
(§5) Tumor inoculation: Either 4T1 or 67NR cells were grown as described above. Cells growing subconfluently were collected and resuspended into the tissue culture medium minus fetal bovine serum and antibiotics, After counting the number of the cells, the cell concentration was adjusted. Twenty μl of the solution containing a selected number of cancer cells (either 5×10^3 or 5×10^4 cells) was injected into each fat pad of a pair of mammary glands located close to lower limbs. Tumor size was measured by weighing tumors extracted from mouse cadavers.

HIF = experiment: Western blotting of HIF in 4T1 cells; assay type: cell-based, mouse; conditions: 4T1, M4N 80 μM
Procedure: as §3

67NR cells [3] = experiment: 67NR tumor-bearing Balb/c mice (life-span); assay type: in vivo, mouse; conditions: 5×10^4 cells, M4N 1 mg/shot, Rottlerin 100 μg/shot, three days a week from day 8
Procedure: as §4, §5

LNCaP tumors = experiment: Nude mice orthotropically implanted with LNCaP tumors, about eight times tumor volume, treatment from day 3; assay type: in vivo, mouse
Procedure: Surgical orthotropic implantation of LNCaP tumors: LNCaP cells were grown as described above. Cells growing subconfluently were collected and resuspended into the tissue culture medium without fetal bovine serum and antibiotics. After counting the number of the cells, the cell concentration was adjusted using the same medium. After 20 μl of the medium containing a selected number of cancer cells (about 5×10^7 cells) had been mixed together with the same volume of Matrigel (BD science, Bedford, Mass.), the combined solution was injected into the skin of nude mice. […] The tumor tissue extracted from the skin was excised into pieces of about 2 mm diameter. After nude mice were anesthetized by 2,2,2-Tribromoethanol (Aldrich Chemical Co. Inc., Milwaukee, Wis.), a small incision was made at the abdomen of each mouse and a tumor tissue piece was implanted in the neighbor of the prostate of each mouse. Eight days after the operation, the injection of drugs was initiated, and the drugs were injected intravenously every day for the indicated periods
As in the previous experiment (FIGS. 9 to 13), in this study we administered M4N, Ly, Ro, Etoposide, or Rapamycin to mice intravenously using CPE (25/30) solvent system (87). […] However, in this experiment we implanted about eight times the volume of tumors as in the previous experiments to detect the difference of efficacy of various combination treatments much faster. We started to treat the mice with combination treatments three days after the implantation instead of eight days, considering that the tumor volume is already large at the time of implantation in this experiment. This allows less time for possible metastasis to the transplanted tumors in this experiment than in the previous one.

caspase-9 = experiment: Western blotting of caspase-9 cleavage in 67NR cells; assay type: cell-based, mouse; conditions: 5 hrs, Rottlerin 5 μM, M4N 80 μM
Procedure: as §3

[4] = test system: LNCaP human prostate cancer cells; assay type: cell-based; conditions: 28 hrs, M4N 80 μM, Ro 5 μM, Ly 20 μM
Procedure: as §1, §2

[5] = cited from earlier work

Structure (SMILES): COc1ccc(C[C@@H](C)[C@@H](C)Cc2ccc(OC)c(OC)c2)cc1OC [M4N, tetra-O-methyl nordihydroguaiaretic acid]
- amount of phosphorylated PKCδ at Thr505 (PKCδ): induced phosphorylation
- TUNEL-positive cell death (67NR cells [1]): more cell death in 67NR cells than 4T1 cells
- total Akt expression [2]: not changed much
- expression of phosphorylated PDK (Ser241), Akt (Ser473), PRAS40 (Thr246), Raf (Ser259), MEK (Ser217/221) ([2]; M4N 80 μM, Desferoxamine 75 or 150 μM): not much effect
- life-span of 4T1-bearing mice (4T1 cells): didn't extend the life-span
- effect on Desferoxamine-mediated HIF induction (HIF): slightly suppressed
- life-span of 67NR-bearing mice (67NR cells [3]): didn't have much effect on the life-span
- mice with lung metastasis lesions (LNCaP tumors; combination groups at 80 days after tumor implantation): 2 out of 4
- time after implantation by which all mice died (LNCaP tumors; mouse, in vivo): ≤ 33 days
- caspase-9 activation (cleavage) (caspase-9): slightly further augmented
- TUNEL-positive cell death [4]: very small
- toxic effects after oral administration ([5]; mouse, in vivo, po): essentially no toxic effects
- M4N concentration retained in mouse organs ([5]; oral administration, short term and long term feeding): ≤ 906 μg/g of tissue
